Experimental data from ChEMBL document CHEMBL5500336, “Recent advances in developing modified C14 side chain pleuromutilins as novel antibacterial agents” (Eur J Med Chem, 2024).
Converted amounts (≈) assume the structure as drawn.

Tests used:
Format in all cases: functional
Staphylococcus aureus [1] = assay: Antibacterial activity against […] Staphylococcus aureus ATCC 25923 assessed as reduction in bacterial growth measured after 24 hrs by MH broth based assay
[2] = test system: Staphylococcus epidermidis; assay: Antibacterial activity against […] Staphylococcus epidermidis ATCC 51625 assessed as inhibition of bacterial growth measured after 24 hrs by MH broth based assay
Staphylococcus aureus [3] = assay: Antibacterial activity against […] Staphylococcus aureus BNCC 337371 assessed as bacterial growth inhibition incubated for 18 to 24 hrs by NCCLS based assay; conditions: time 18-24 hrs
Staphylococcus aureus [4] = assay: Antimicrobial activity against […] Staphylococcus aureus ATCC 43300 assessed as inhibition of microbial growth measured after 20 to 24 hrs incubation by CLSI method; conditions: time 20-24 hrs
Staphylococcus aureus [5] = assay: Antimicrobial activity against […] Staphylococcus aureus ATCC 33591 assessed as inhibition of microbial growth measured after 20 to 24 hrs incubation by CLSI method; conditions: time 20-24 hrs
Escherichia coli = assay: Antibacterial activity against Escherichia coli ATCC 25922 assessed as bacterial growth inhibition measured after 18 hrs by CLSI based method
[6] = test system: Staphylococcus epidermidis; assay: Antibacterial activity against methicillin-sensitive Staphylococcus epidermidis ATCC 12228 assessed as reduction in bacterial growth incubated for 18 hrs by agar dilution method
[7] = test system: Staphylococcus epidermidis; assay: Antibacterial activity against […] Staphylococcus epidermidis ATCC 35984 after 16 to 18 hrs by CLSI protocol based broth microdilution assay; conditions: time 16-18 hrs
Staphylococcus aureus [8] = assay: Antibacterial activity against Methicillin-resistant Staphylococcus aureus assessed as bacterial growth inhibition
Staphylococcus aureus [9] = assay: Antibacterial activity against Methicillin-sensitive Staphylococcus aureus assessed as bacterial growth inhibition
Staphylococcus aureus [10] = assay: Antibacterial activity against […] Staphylococcus aureus ATCC 43300 assessed as inhibition of bacterial growth
Staphylococcus aureus [11] = assay: Antibacterial activity against […] Staphylococcus aureus ATCC 43300 assessed as inhibition of bacterial growth measured after 24 hrs by MH broth based assay
Staphylococcus aureus [12] = assay: Antibacterial activity against […] Staphylococcus aureus ATCC 43300 assessed as reduction in microbial growth after 16 hrs by broth microdilution method
Staphylococcus aureus [13] = assay: Antibacterial activity against […] Staphylococcus aureus ATCC 33592 assessed as bacterial growth inhibition
Streptococcus pneumoniae = assay: Antibacterial activity against Streptococcus pneumoniae B1 assessed as reduction in bacterial growth

In the case of `C=C[C@]1(C)C[C@@H](OC(=O)CSC2=NC(C)=C(C(=O)OC)C(C)N2)[C@]2(C)[C@H](C)CC[C@]3(CCC(=O)[C@H]32)[C@@H](C)[C@@H]1O` (stereo partly drawn), the MIC (Staphylococcus aureus [1]) is reported as 0.25 µg/mL (≈ 0.446 µM), the MIC [2] is reported as 0.125 µg/mL (≈ 0.223 µM) and the MIC (Staphylococcus aureus [3]) is reported as 0.25 µg/mL (≈ 0.446 µM).

Molecule `C=C[C@]1(C)C[C@@H](OC(=O)CN2CCN(c3ccc(C4CC(c5ccccc5[N+](=O)[O-])=NN4)cc3)CC2)[C@]2(C)[C@H](C)CC[C@]3(CCC(=O)[C@H]32)[C@@H](C)[C@@H]1O` (stereo partly drawn) has an MIC (Staphylococcus aureus [4]) of 2 µg/mL, an MIC (Staphylococcus aureus [5]) of 2 µg/mL and an MIC (Escherichia coli) of 2 µg/mL (≈ 2.81 µM).

Molecule `C=C[C@]1(C)C[C@@H](OC(=O)CSCc2csc(NC(=O)CN3CCCCC3)n2)[C@]2(C)[C@H](C)CC[C@]3(CCC(=O)[C@H]32)[C@@H](C)[C@@H]1O` has an MIC [6] of 0.063 µg/mL (≈ 0.0997 µM), an MIC [7] of 0.063 µg/mL (≈ 0.0997 µM) and an MIC (Staphylococcus aureus [8]) of 0.063 µg/mL (≈ 0.0997 µM). It also gave an MIC (Staphylococcus aureus [9]) of 0.063 µg/mL (≈ 0.0997 µM).

Work on `C=C[C@]1(C)C[C@@H](OC(=O)CSc2ccc(NC(=O)c3ccc(F)cc3)cc2)[C@]2(C)[C@H](C)CC[C@]3(CCC(=O)[C@H]32)[C@@H](C)[C@@H]1O` yielded an MIC (Staphylococcus aureus [10]) of 0.03 µg/mL (≈ 0.0494 µM) and an MBC (Staphylococcus aureus [11]) of 0.03 µg/mL (≈ 0.0494 µM).

`C=C[C@]1(C)C[C@@H](OC(=O)CSc2nc(C)c(C(C)=O)c(C)n2)[C@]2(C)[C@H](C)CC[C@]3(CCC(=O)[C@H]32)[C@@H](C)[C@@H]1O` showed an MIC (Staphylococcus aureus [1]) of 0.016 µg/mL (≈ 0.0295 µM), an MIC [2] of 0.03 µg/mL (≈ 0.0553 µM) and an MIC (Staphylococcus aureus [3]) of 0.015 µg/mL (≈ 0.0276 µM).

With `C=C[C@]1(C)C[C@@H](OC(=O)CSc2ccc(NC(=O)c3ccco3)cc2)[C@]2(C)[C@H](C)CC[C@]3(CCC(=O)[C@H]32)[C@@H](C)[C@@H]1O` the MIC (Staphylococcus aureus [10]) was 0.015 µg/mL (≈ 0.0259 µM) and the MBC (Staphylococcus aureus [11]) was 0.03 µg/mL (≈ 0.0517 µM).

`C=C[C@]1(C)C[C@@H](OC(=O)CSc2ccccc2NC(=O)c2ccccc2C)[C@]2(C)[C@H](C)CC[C@]3(CCC(=O)[C@H]32)[C@@H](C)[C@@H]1O` gave an MIC (Staphylococcus aureus [12]) of 0.25 µg/mL.

In the case of `C=C[C@]1(C)C[C@@H](OC(=O)CSc2ccc(NC(=O)c3cccs3)cc2)[C@]2(C)[C@H](C)CC[C@]3(CCC(=O)[C@H]32)[C@@H](C)[C@@H]1O`, the MIC (Staphylococcus aureus [10]) is reported as 0.03 µg/mL (≈ 0.0504 µM) and the MBC (Staphylococcus aureus [11]) is reported as 0.03 µg/mL (≈ 0.0504 µM).

`C=C[C@]1(C)C[C@@H](OC(=O)CSC2=NC(C)=C(C(=O)OCC)C(C)N2)[C@]2(C)[C@H](C)CC[C@]3(CCC(=O)[C@H]32)[C@@H](C)[C@@H]1O` (stereo partly drawn) gave an MIC (Staphylococcus aureus [1]) of 0.125 µg/mL (≈ 0.217 µM), an MIC [2] of 0.06 µg/mL (≈ 0.104 µM) and an MIC (Staphylococcus aureus [3]) of 0.06 µg/mL (≈ 0.104 µM).

With `C=C[C@]1(C)C[C@@H](OC(=O)CSc2nc(C)c(C(=O)OCC)c(C)n2)[C@]2(C)[C@H](C)CC[C@]3(CCC(=O)[C@H]32)[C@@H](C)[C@@H]1O` the MIC (Staphylococcus aureus [1]) was ≤ 0.016 µg/mL, the MIC [2] was 0.015 µg/mL (≈ 0.0262 µM) and the MIC (Staphylococcus aureus [3]) was 0.015 µg/mL (≈ 0.0262 µM).

With `C=C[C@]1(C)C[C@@H](OC(=O)CSCc2csc(N)n2)[C@]2(C)[C@H](C)CC[C@]3(CCC(=O)[C@H]32)[C@@H](C)[C@@H]1O` the MIC [6] was 0.063 µg/mL (≈ 0.124 µM), the MIC [7] was 0.063 µg/mL (≈ 0.124 µM) and the MIC (Staphylococcus aureus [8]) was 0.063 µg/mL (≈ 0.124 µM). For the same molecule, the MIC (Staphylococcus aureus [9]) was 0.063 µg/mL (≈ 0.124 µM).

Molecule `C=C[C@]1(C)C[C@@H](OC(=O)CSc2ccccc2N)[C@]2(C)[C@H](C)CC[C@]3(CCC(=O)[C@H]32)[C@@H](C)[C@@H]1O` has an MIC (Staphylococcus aureus [13]) of 0.5 µg/mL (≈ 1.03 µM), an MIC (Staphylococcus aureus [12]) of 0.016 µg/mL and an MIC (Streptococcus pneumoniae) of 0.016 µg/mL (≈ 0.0329 µM).

`C=C[C@]1(C)C[C@@H](OC(=O)CSc2ccc(NC(=O)c3cccc(F)c3)cc2)[C@]2(C)[C@H](C)CC[C@]3(CCC(=O)[C@H]32)[C@@H](C)[C@@H]1O` was tested, and the MIC (Staphylococcus aureus [10]) was 0.03 µg/mL (≈ 0.0494 µM) and the MBC (Staphylococcus aureus [11]) was 0.03 µg/mL (≈ 0.0494 µM).

`C=C[C@]1(C)C[C@@H](OC(=O)CN2CCN(c3ccc(C4CC(N)=NC=C4c4ccccc4[N+](=O)[O-])cc3)CC2)[C@]2(C)[C@H](C)CC[C@]3(CCC(=O)[C@H]32)[C@@H](C)[C@@H]1O` (stereo partly drawn) showed an MIC (Staphylococcus aureus [4]) of 1 µg/mL, an MIC (Staphylococcus aureus [5]) of 1 µg/mL and an MIC (Escherichia coli) of 8 µg/mL (≈ 10.8 µM).
